Test results: ChEMBL document CHEMBL1128053, “Inhibition of matrix metalloproteinases by N-carboxyalkyl dipeptides: Enhanced potency and selectivity with substituted P1 homophenylalanines” (Bioorg Med Chem Lett, 1995)

What was measured:
Interstitial collagenase = molecular target: T1, Interstitial collagenase (Homo sapiens, UniProt P03956)
T1 sequence (P03956 whole entry): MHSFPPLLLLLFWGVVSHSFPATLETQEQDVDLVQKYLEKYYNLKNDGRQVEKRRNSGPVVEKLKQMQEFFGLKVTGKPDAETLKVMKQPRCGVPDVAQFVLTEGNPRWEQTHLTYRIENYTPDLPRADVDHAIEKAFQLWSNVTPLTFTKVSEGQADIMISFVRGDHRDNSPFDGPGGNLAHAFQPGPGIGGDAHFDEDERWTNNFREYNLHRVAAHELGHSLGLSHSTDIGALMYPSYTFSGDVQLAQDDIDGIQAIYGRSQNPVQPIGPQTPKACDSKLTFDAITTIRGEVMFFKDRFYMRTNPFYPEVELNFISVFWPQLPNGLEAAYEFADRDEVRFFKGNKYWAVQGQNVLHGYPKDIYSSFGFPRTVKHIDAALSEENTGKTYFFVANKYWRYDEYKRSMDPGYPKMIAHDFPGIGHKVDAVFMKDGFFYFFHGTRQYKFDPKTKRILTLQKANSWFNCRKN

[1] = molecular target: 72 kDa type IV collagenase (Homo sapiens, UniProt P08253)
Sequence of 72 kDa type IV collagenase (P08253 whole entry): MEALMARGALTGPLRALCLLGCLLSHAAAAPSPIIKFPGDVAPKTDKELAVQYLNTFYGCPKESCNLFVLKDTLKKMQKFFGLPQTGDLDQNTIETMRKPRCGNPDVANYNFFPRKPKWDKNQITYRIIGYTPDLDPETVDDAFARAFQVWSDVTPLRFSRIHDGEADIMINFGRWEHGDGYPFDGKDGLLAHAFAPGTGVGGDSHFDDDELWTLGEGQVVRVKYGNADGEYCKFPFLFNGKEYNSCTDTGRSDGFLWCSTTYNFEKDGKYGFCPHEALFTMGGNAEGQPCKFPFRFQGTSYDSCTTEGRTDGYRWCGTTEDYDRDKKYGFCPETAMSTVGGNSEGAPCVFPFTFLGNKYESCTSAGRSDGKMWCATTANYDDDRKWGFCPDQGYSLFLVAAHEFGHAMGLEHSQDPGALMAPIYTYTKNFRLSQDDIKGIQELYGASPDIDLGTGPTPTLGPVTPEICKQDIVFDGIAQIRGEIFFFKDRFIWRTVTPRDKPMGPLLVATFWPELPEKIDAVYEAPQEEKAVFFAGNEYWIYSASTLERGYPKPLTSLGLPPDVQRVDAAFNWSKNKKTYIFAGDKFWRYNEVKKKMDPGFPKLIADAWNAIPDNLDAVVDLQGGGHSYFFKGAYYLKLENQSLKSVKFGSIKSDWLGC

Row | Ki (Interstitial collagenase) [µM] | Ki [1] [µM] | SMILES
1 | 1.9 |  | Cc1ccc(CC[C@H](N[C@H](C)C(=O)O)C(=O)N[C@@H](CC(C)C)C(=O)Nc2ccccc2)cc1
2 | > 10 | 4.84 | Cc1cc(C)cc(CC[C@H](N[C@H](C)C(=O)O)C(=O)N[C@@H](CC(C)C)C(=O)Nc2ccccc2)c1
3 | 0.87 | 0.22 | CC(C)C[C@H](NC(=O)[C@H](CCc1ccc(F)cc1)N[C@H](C)C(=O)O)C(=O)Nc1ccccc1
4 | 0.47 | 0.21 | C[C@@H](N[C@@H](CCc1ccccc1)C(=O)N[C@@H](CCCNC(=N)N)C(=O)Nc1ccccc1)C(=O)O
5 | > 10 | 0.011 | CC(C)Cc1ccc(CC[C@H](N[C@H](C)C(=O)O)C(=O)N[C@@H](CC(C)C)C(=O)Nc2ccccc2)cc1
6 | > 10 |  | COc1ccccc1CC[C@H](N[C@H](C)C(=O)O)C(=O)N[C@@H](CC(C)C)C(=O)Nc1ccccc1
7 | > 10 | > 10 | COc1ccc(CC[C@H](N[C@H](C)C(=O)O)C(=O)N[C@@H](CC(C)C)C(=O)Nc2ccccc2)cc1OC
8 | 3.3 |  | CC(C)C[C@H](NC(=O)[C@H](CCc1cccc(Cl)c1)N[C@H](C)C(=O)O)C(=O)Nc1ccccc1
9 | 2.3 | 0.012 | CCc1ccc(CC[C@H](N[C@H](C)C(=O)O)C(=O)N[C@@H](CC(C)C)C(=O)Nc2ccccc2)cc1
10 | 2.9 | 0.003 | CCCc1ccc(CC[C@H](N[C@H](C)C(=O)O)C(=O)N[C@@H](CCCN=C(N)N)C(=O)Nc2ccccc2)cc1
11 | > 10 | 0.0021 | CCCCc1ccc(CC[C@H](N[C@H](C)C(=O)O)C(=O)N[C@@H](CCCNC(=N)N)C(=O)Nc2ccccc2)cc1
12 | 2.3 | 0.0061 | CCOc1ccc(CC[C@H](N[C@H](C)C(=O)O)C(=O)N[C@@H](CCCNC(=N)N)C(=O)Nc2ccccc2)cc1
13 | 1 |  | CC(C)C[C@H](NC(=O)[C@H](CCc1ccc(O)cc1)N[C@H](C)C(=O)O)C(=O)Nc1ccccc1
14 | > 10 | 6.1 | CC(C)Cc1cccc(CC[C@H](N[C@H](C)C(=O)O)C(=O)N[C@@H](CC(C)C)C(=O)Nc2ccccc2)c1
15 | > 10 |  | Cc1ccccc1CC[C@H](N[C@H](C)C(=O)O)C(=O)N[C@@H](CC(C)C)C(=O)Nc1ccccc1
16 | 7.7 | 0.025 | Cc1ccc(CC[C@H](N[C@H](C)C(=O)O)C(=O)N[C@@H](CC(C)C)C(=O)Nc2ccccc2)cc1C
17 | > 10 |  | COc1cccc(CC[C@H](N[C@H](C)C(=O)O)C(=O)N[C@@H](CC(C)C)C(=O)Nc2ccccc2)c1
18 | > 10 | 0.13 | CC(C)C[C@H](NC(=O)[C@H](CCc1ccc(C(C)C)cc1)N[C@H](C)C(=O)O)C(=O)Nc1ccccc1
19 | 5.9 | 0.0035 | CCCc1ccc(CC[C@H](N[C@H](C)C(=O)O)C(=O)N[C@@H](CC(C)C)C(=O)Nc2ccccc2)cc1
20 | 5.1 | 0.11 | CC(C)C[C@H](NC(=O)[C@H](CCc1ccc(C(F)(F)F)cc1)N[C@H](C)C(=O)O)C(=O)Nc1ccccc1
21 | 1.5 |  | Cc1cccc(CC[C@H](N[C@H](C)C(=O)O)C(=O)N[C@@H](CC(C)C)C(=O)Nc2ccccc2)c1
22 | 2.7 |  | CC(C)C[C@H](NC(=O)[C@H](CCc1ccccc1O)N[C@H](C)C(=O)O)C(=O)Nc1ccccc1
23 | 0.51 |  | CC(C)C[C@H](NC(=O)[C@H](CCc1cccc(O)c1)N[C@H](C)C(=O)O)C(=O)Nc1ccccc1
24 | 2.1 | 0.077 | CC(C)C[C@H](NC(=O)[C@H](CCc1ccc(Cl)cc1)N[C@H](C)C(=O)O)C(=O)Nc1ccccc1
